This assay deals with Large T antigen (Simian virus 40, UniProt P03070). In words: SV40 large T antigen inhibitors, biochemical (AID 1903).

This passage reports IC50 results from BindingDB's records for doi:10.7270/Q2M61HQ8 (Southern Research Specialized Biocontainment Screening …, 2010).

Large T antigen, sequence (P03070 whole entry): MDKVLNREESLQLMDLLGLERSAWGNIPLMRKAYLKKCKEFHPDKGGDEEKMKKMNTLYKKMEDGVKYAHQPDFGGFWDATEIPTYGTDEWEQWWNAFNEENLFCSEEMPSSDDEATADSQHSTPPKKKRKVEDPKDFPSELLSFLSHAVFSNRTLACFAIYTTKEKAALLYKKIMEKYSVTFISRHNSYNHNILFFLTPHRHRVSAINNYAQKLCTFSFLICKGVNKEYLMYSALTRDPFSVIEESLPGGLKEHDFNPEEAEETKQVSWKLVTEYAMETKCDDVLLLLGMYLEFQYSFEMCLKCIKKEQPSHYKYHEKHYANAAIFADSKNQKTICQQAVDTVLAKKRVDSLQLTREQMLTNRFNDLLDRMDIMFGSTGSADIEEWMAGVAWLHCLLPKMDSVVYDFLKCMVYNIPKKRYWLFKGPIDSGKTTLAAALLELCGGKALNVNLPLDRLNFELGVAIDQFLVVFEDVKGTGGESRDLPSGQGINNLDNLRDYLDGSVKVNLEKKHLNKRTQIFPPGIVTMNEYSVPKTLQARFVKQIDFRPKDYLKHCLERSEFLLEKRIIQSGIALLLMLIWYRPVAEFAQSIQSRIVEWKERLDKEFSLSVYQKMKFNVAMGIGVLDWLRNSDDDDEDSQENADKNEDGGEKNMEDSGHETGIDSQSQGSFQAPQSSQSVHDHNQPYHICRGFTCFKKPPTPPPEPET

For the compound `Cc1ccc(Nc2oc3cc(=O)ccc-3cc2C(N)=O)cc1` [2-(4-methylanilino)-7-oxochromene-3-carboxamide], it took 33.8 µM to reach half-maximal inhibition (IC50).

Turning to `O=C1CCCC(=O)C1=CNc1ccc(O)cc1` [2-[(4-hydroxyanilino)methylidene]cyclohexane-1,3-dione], 12.3 µM corresponded to half-maximal inhibition (IC50).

Turning to `N#CC1C(=N)C2=C(N3CCCCC3)CCCC2C1(C#N)C#N` (stereo unspecified) [3-Amino-4-piperidin-1-yl-5,6,7,7a-tetrahydro-indene-1,1,2-tricarbonitrile], the half-maximal inhibitory concentration (IC50) (commonly the concentration needed to halve the response being measured) turned out to be 9.99 µM.

`O=C1CCCC2=Nc3[nH]c(=S)[nH]c(=O)c3C(c3ccc(Br)cc3)C12` (stereo unspecified) [5-(4-bromophenyl)-2-thioxo-2,3,5,8,9,10-hexahydropyrimido[4,5-b]quinoline-4,6(1H,7H)-dione]: the IC50 amounted to 48.1 µM.

For the compound `CCN(CC)CCN1C(=O)C(=O)C(C(=O)c2ccc(C)cc2)C1c1cccnc1` (stereo unspecified) [(4E)-1-[2-(diethylamino)ethyl]-4-[hydroxy-(4-methylphenyl)methylidene]-5-(3-pyridinyl)pyrrolidine-2,3-dione], the IC50 worked out at 18.9 µM.

For the compound `CN(C)c1ccc(N=CCC(=O)c2ccccc2)cc1` [(E)-3-[4-(dimethylamino)anilino]-1-phenyl-2-propen-1-one], the concentration for half-maximal inhibition (IC50) turned out to be 5.19 µM.

On to `Cc1cc(-c2nc3c4c5c(sc4nc(=O)n3[nH]2)CCC5)c(C)o1` [MLS000048351], for which the IC50 stood at 24.8 µM.

Consider `Oc1ccc(-c2nc3c[nH]ccn-3c2=Nc2ccc3c(c2)OCCO3)cc1` [MLS000116162], for which the concentration for half-maximal inhibition (IC50) was 4.14 µM.

With `CN(C)c1ccc(NC(=O)c2cccc(-n3c(O)ccc3O)c2)cc1` [N-[4-(dimethylamino)phenyl]-3-(2,5-dioxopyrrolidin-1-yl)benzamide], the IC50 was 9.21 µM.

On to `CC1(C)CC(=O)C(=CNc2ccc(O)cc2)C(=O)C1` [SMR000024722], for which the IC50 turned out to be 5.53 µM.

For the compound `COc1cc(-c2nc3c[nH]ccn-3c2=Nc2ccccc2)ccc1O` [SMR000093145], inhibition was half-maximal at 5.05 µM (IC50).
